Experimental data: patent publication US7915022B2, “Carbonyl reductase, gene thereof and method of using the same” (priority 2004, dated 2011)

Tests used:
[1] = tested on: polypeptide consisting of the amino acid sequence shown in SEQ ID NO: 3 (carbonyl reductase), cell-free extract of E. coli HB101 (pNTOM3); assay: Substrate specificity of polypeptide produced by transformant E. coli HB101 (pNTOM3); assay type: biochemical, Ogataea minuta var. minuta NBRC0975; details: 1 mM substrate, 0.25 mM NADPH, pH 6.5, 30° C., 1 min; relative to activity on CBPB as 100%
Experimental: (§1) In 100 mM phosphate buffer (pH 6.5) containing 0.33% (v/v) dimethyl sulfoxide were dissolved a carbonyl compound to be a substrate to a final concentration of 1 mM, and a coenzyme NADPH to a final concentration of 0.25 mM, respectively. Thereto was added a cell-free extract of E. coli HB101 (pNTOM4) or E. coli HB101 (pNTOM3) prepared in Example 7, and the mixture was reacted at 30° C. for 1 min. The reduction activity on each carbonyl compound was calculated from the rate of decrease in the absorbance of the reaction mixture at a wavelength of 340 nm, and shown in Table 2 as a value relative to the activity on (3S)-1-chloro-3-tert-butoxycarbonylamino-4-phenyl-2-butanone as 100%.

[2] = tested on: polypeptide consisting of the amino acid sequence shown in SEQ ID NO: 4 (carbonyl reductase), cell-free extract of E. coli HB101 (pNTOM4); assay: Substrate specificity of polypeptide produced by transformant E. coli HB101 (pNTOM4); assay type: biochemical, Ogataea minuta var. minuta NBRC0975; details: 1 mM substrate, 0.25 mM NADPH, pH 6.5, 30° C., 1 min; relative to activity on CBPB as 100%
Experimental: as §1

Row | Compound | relative activity (%) E. coli HB101 (pNTOM3) [1] [%] | relative activity (%) E. coli HB101 (pNTOM4) [2] [%]
1 | CCCCC(C)=O [2-hexanone] | 11 | 0
2 | O=C1CCCc2ccccc21 [1-tetoralone] | 146 | 1
3 | CC(=O)c1ccccc1 [acetophenone] | 215 | 0
4 | O=Cc1ccc([N+](=O)[O-])cc1 [p-nitrobenzaldehyde] | 1166 | 21
5 | CC(=O)c1ccccn1 [2-acetylpyridine] | 29 | 0
6 | CC(=O)CC(C)=O [acetylacetone] | 23 | 0
7 | CCCCCC(C)=O [2-heptanone] | 102 | 0
8 | C=CC(C(C)=O)C(=O)OCC (stereo not drawn) [ethyl 2-eteneacetoacetate] | 2013 | 10
9 | CCOC(=O)CC(=O)COC(C)=O [ethyl 4-acetoxyacetoacetate] | 465 | 1
10 | CCOC(=O)C(Cl)C(=O)c1ccccc1 (stereo not drawn) [ethyl 2-chloro-3-oxo-3-phenylpropionate] | 716 | 5
11 | O=C(c1ccccc1)C(O)c1ccccc1 (stereo not drawn) [benzoin] | 4018 | 5
12 | CC(=O)c1ccc(Cl)cc1 [4′-chloroacetophenone] | 35 | 9
13 | O=Cc1ccccc1 [benzaldehyde] | 81 | 1
14 | CCCCCC=O [n-hexylaldehyde] | 265 | 3
15 | CCC(=O)Cc1ccccc1 [1-phenyl-2-butanone] | 285 | 2
16 | CC(=O)CC(=O)OC(C)(C)C [tert-butyl acetoacetate] | 1330 | 2
17 | CCC(=O)c1ccccc1 [propiophenone] | 183 | 2
18 | CCOC(=O)CC(=O)CBr [ethyl 4-bromoacetoacetate] | 476 | 7
19 | CCCCCCCCOC(=O)CC(=O)CCl [n-octyl 4-chloroacetoacetate] | 466 | 24
20 | COc1ccc(C(C)=O)cc1OC [3′,4′-dimethoxyacetophenone] | 51 | 4
21 | CCCC=O [n-butylaldehyde] | 168 | 0

Row | Compound | relative activity (%) E. coli HB101 (pNTOM3) [1] [%] | relative activity (%) E. coli HB101 (pNTOM4) [2] [%]
22 | CCOC(=O)CC(C)=O [ethyl acetoacetate] | 137 | 0
23 | CCCCCCCCC(=O)C(=O)OCC [ethyl 2-oxodecanoate] | 985 | 5
24 | O=CCCCC=O [glutaraldehyde] | 80 | 1
25 | O=C(CO)c1ccccc1 [2-hydroxyacetophenone] | 32 | 1
26 | CC(C=O)c1ccccc1 (stereo not drawn) [2-phenylpropionaldehyde] | 479 | 3
27 | CC(=O)c1ccncc1 [4-acetylpyridine] | 98 | 0
28 | CC(=O)c1ccc(C)cc1 [4′-methylacetophenone] | 41 | 1
29 | CCOC(=O)C1CCC(=O)C1 (stereo not drawn) [ethyl 3-oxocyclopentanecarboxylate] | 484 | 12
30 | CCOC(=O)CC(=O)c1ccccc1 [ethyl benzoylacetate] | 1233 | 0
31 | CCC(C)=O [2-butanone] | 22 | 0
32 | CC(C)(C)OC(=O)N[C@@H](Cc1ccccc1)C(=O)CCl [CBPB, (3S)-1-chloro-3-tert-butoxycarbonylamino-4-phenyl-2-butanone] | 100 | 100
33 | CC(=O)c1cccc([N+](=O)[O-])c1 [3′-nitroacetophenone] | 273 | 31
34 | CC(=O)c1cnccn1 [acetylpyrazine] | 185 | 0
35 | CCOC(=O)C(Cl)C(C)=O (stereo not drawn) [ethyl 2-chloroacetoacetate] | 3309 | 40
36 | CC(=O)c1cccnc1 [3-acetylpyridine] | 15 | 0
37 | O=C1CCCC1 [cyclopentanone] | 8 | 0
38 | O=Cc1cccc([N+](=O)[O-])c1 [m-nitrobenzaldehyde] | 851 | 29
39 | O=Cc1ccncc1 [pyridine-4-aldehyde] | 571 | 2
40 | O=Cc1cccc(Cl)c1 [m-chlorobenzaldehyde] | 344 | 17
41 | COc1ccc2c(c1)CC(=O)CC2 [7-methoxy-2-tetoralone] | 599 | 6
42 | O=Cc1ccccn1 [2-pyridinecarbaldehyde] | 56 | 1
